The structures appear in SMILES notation. In brackets after ≈: the same amount, converted by molar mass. Where only a bound is given, the exact number is not on record here.

T1 sequence (P02919 58-804): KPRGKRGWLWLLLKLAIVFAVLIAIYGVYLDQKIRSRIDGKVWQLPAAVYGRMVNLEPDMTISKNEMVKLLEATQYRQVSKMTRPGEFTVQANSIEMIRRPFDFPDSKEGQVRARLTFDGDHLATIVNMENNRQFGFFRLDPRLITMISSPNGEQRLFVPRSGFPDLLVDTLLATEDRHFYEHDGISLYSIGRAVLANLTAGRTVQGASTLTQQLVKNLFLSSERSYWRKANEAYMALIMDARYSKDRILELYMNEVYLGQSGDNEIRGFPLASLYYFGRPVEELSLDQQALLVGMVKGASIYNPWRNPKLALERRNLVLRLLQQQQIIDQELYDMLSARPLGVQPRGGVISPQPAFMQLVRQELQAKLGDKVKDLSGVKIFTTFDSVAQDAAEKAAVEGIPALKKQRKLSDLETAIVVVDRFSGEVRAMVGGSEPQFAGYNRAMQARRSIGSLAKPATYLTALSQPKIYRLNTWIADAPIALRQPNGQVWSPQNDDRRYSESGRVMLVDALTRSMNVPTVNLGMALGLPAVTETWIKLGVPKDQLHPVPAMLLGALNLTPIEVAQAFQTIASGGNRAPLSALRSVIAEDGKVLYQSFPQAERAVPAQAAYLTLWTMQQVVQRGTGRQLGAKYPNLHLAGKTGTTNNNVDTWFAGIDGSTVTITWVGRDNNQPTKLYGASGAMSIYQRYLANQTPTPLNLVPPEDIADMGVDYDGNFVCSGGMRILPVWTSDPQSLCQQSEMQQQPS

The first assay addresses T1, penicillin-binding protein 1b from E. coli (transglycosylase) (Escherichia coli, UniProt P02919).
T1 construct: PBP1b[58-804] was amplified from E. coli genomic DNA and cloned into the expression vector pET15b; His6 (N, cleaved yes); made in house; host or cells: E. coli BL21(DE3)
Kind of assay: Lipid II polymerization / transglycosylase (TG) activity assay. The format is biochemical. The following applies: 50 μM compound; TG activity remaining (0% = full inhibition). The procedure:
Lipid II polymerization assays were carried out by incubating 100 μM fluorophore-labeled lipid II and penicillin-binding protein 1b from E. coli in tubes containing 10 ng/μL N-acetyl muramidase in 50 mM Tris.HCl (pH 8.0), 10 mM MgCl2, 0.1% Triton X-100, 10% DMSO, and 15% MeOH for 30 minutes (Van Nieuwenhze et al. J Am Chem Soc 2002, 124, 3656.). The fluorophore can be dansyl chloride, NBD, BODIPY, fluorescein. Reaction supernatants were then injected onto an anion-exchange HPLC column (SAX1, Supelco Co.) and eluted with a linear gradient of ammonium acetate (20 mM to 0.5 M) in methanol. The eluant was monitored for fluorescence with λex=466 nm and λem=535 nm.
Purified protein was concentrated in 20 mM Tris-HCl (pH 8.0), 300 mM NaCl, and 1 mM DDM. Instead of using Dansyl lipid II, 6-(N-(7-nitrobenz-2-oxa-1,3-diazol-4-yl)amino) hexanoyl (NBD)-labeled Lipid II was prepared as described (Taubes G (2008) Science 321:356-361; Payne D J (2008) Science 321:1644-1645) and used as a substrate to measure TG enzymatic activity, with approach similar to what has been described previously (Holtje J V (1998) Microbiol Mol Biol Rev 62:181-203). Assays were carried out by using the following condition: NBD-Lipid II, 20 nM protein, 50 mM Tris HCl (pH 8.0), 10 mMCaCl2, 0.085% decyl PEG (Anatrace), and 15% MeOH at 37° C. for 0, 1, 3, 5, 7, 9, 20, and 30 min. The concentration of NBD-Lipid II was varied from 1 to 100 μM to determine the rate of the TG activity. After the reaction, 200 μM moenomycin was added to stop the reaction, and 13 μM muramidase (Sigma-Aldrich) was added to digest the TG products to result in NBD-Lipid II without lipid tails. The fluorescent signal decrease of substrate and increase of NBD-Lipid II without lipid tails were detected by anion-exchange column SAX1 (Supelco) on HPLC (Hitachi). The elution procedures was a linear gradient of ammonium acetate (20 mM to 1 M) in MeOH monitored at λexcitation=466 nm and λemission=535 nm. The kinetic parameter was estimated by following the Michaelis-Menten equation. To investigate the importance of transmembrane (TM) helix, PBP1b and PBP1bΔTM (residues Met-1 to Leu-87 were removed) were extracted with the buffer containing 20 mM Tris-HCl (pH 8.0), 300 mM NaCl, and 13 mM FOS-CHOLINE-14 (Anatrace). The protein was purified by nickel chelation chromatography in the presence of 1 mM DDM. The activity assay was carried out by using the following condition: 12 μM NBD-Lipid II, 20 nM protein, 50 mM Tris-HCl (pH 8.0), 10 mM CaCl2, 0.085% decyl PEG, and 15% MeOH at 37° C. for time 0, 1, 3, 5, 7, 9, 20, and 30 min. The initial velocity was used to compare the activity of full-length PBP1b and PBP1bΔTM.
As to `Cc1ccc(NC(=O)c2ccccc2)cc1Cl` [Compound A4N3], the “TG Activity at various concentration of cmpd: 50 μM” value worked out at 100%.
On the same count and under the same terms, to `O=C(Nc1cc(Cl)ccc1Oc1ccccc1)c1ccc(O)c(O)c1O` [Compound A5N1] belongs 100%; to `O=C(Nc1ccccc1Oc1ccccc1)c1ccc(O)c(O)c1O` [Compound A5N2], 100%; to `O=C(Nc1cc(Cl)ccc1Oc1ccccc1)c1ccc(O)cc1` [Compound A6N1], 100%.
`O=C(Nc1ccccc1Oc1ccccc1)c1ccc(O)cc1` [Compound A6N2]: the “TG Activity at various concentration of cmpd: 50 μM” value is 100%.
The same measure, in the same setting: the figure for `Cc1ccc(NC(=O)c2ccc(O)cc2)cc1Cl` [Compound A6N3] is 100%.

The same assay, now with this note: 100 μM compound; TG activity remaining (0% = full inhibition).
Turning to `Cc1ccc(NC(=O)c2ccccc2)cc1Cl` [Compound A4N3], the “TG Activity at various concentration of cmpd: 100 μM” value amounted to 100%.
Still for that read-out and setting: to `O=C(Nc1cc(Cl)ccc1Oc1ccccc1)c1ccc(O)c(O)c1O` [Compound A5N1] belongs 0%; to `O=C(Nc1ccccc1Oc1ccccc1)c1ccc(O)c(O)c1O` [Compound A5N2], 0%.
As to `O=C(Nc1cc(Cl)ccc1Oc1ccccc1)c1ccc(O)cc1` [Compound A6N1], the “TG Activity at various concentration of cmpd: 100 μM” value amounted to 100%.
Still for that read-out and setting: to `O=C(Nc1ccccc1Oc1ccccc1)c1ccc(O)cc1` [Compound A6N2] belongs 100%; to `Cc1ccc(NC(=O)c2ccc(O)cc2)cc1Cl` [Compound A6N3], 100%.

Still in this assay, the particulars now being: read-out: TG Activity at various concentration of cmpd: 50 μM.
Turning to `O=C(Nc1cccc(Cl)c1)c1cc(Br)cc(Br)c1O` [Compound 203], the remaining activity at 50 µM worked out at 100%.
`Cc1ccc(NC(=O)c2ccccc2O)cc1Cl` [Compound A3N3]: the remaining activity at 50 µM worked out at 100%.
Turning to `O=C(Nc1ccc(Cl)cc1)c1ccccc1O` [Compound A3N4], the remaining activity at 50 µM was 100%.
On the same count and under the same terms, to `O=C(Nc1ccc([N+](=O)[O-])cc1)c1ccccc1O` [Compound A3N5] belongs 100%.
Consider `COc1ccc(NC(=O)c2ccccc2O)cc1` [Compound A3N6], for which the remaining activity at 50 µM was 100%.
Still for that read-out and setting: the figure for `Cc1ccc(NC(=O)c2ccc(O)c(O)c2O)cc1Cl` [Compound A5N3] is 100%.

Still in this assay, the particulars now being: read-out: TG Activity at various concentration of cmpd: 100 μM.
Take `O=C(Nc1cccc(Cl)c1)c1cc(Br)cc(Br)c1O` [Compound 203]: the remaining activity at 100 µM is 100%.
On the same count and under the same terms, to `Cc1ccc(NC(=O)c2ccccc2O)cc1Cl` [Compound A3N3] belongs 100%.
Still for that read-out and setting: to `O=C(Nc1ccc(Cl)cc1)c1ccccc1O` [Compound A3N4] belongs 100%.
Turning to `O=C(Nc1ccc([N+](=O)[O-])cc1)c1ccccc1O` [Compound A3N5], the remaining activity at 100 µM was 100%.
Same read-out and setting: to `COc1ccc(NC(=O)c2ccccc2O)cc1` [Compound A3N6] belongs 100%.
Same read-out and setting: the figure for `Cc1ccc(NC(=O)c2ccc(O)c(O)c2O)cc1Cl` [Compound A5N3] is 0%.

The subject of the next assay is Staphylococcus aureus (ATCC29213, SA). Kind of assay: Minimal inhibitory concentration (MIC), SA. The assay is classed as cell-based. The following applies: Staphylococcus aureus ATCC29213. The procedure: (§1) The minimal inhibitory concentration (MIC) of tested compounds was determined following the NCCLS standard. The experiments were conducted in 96-well microtiter plates using two-fold dilutions in Muller-Hilton broth with (Streptococcus pneumonia) or without blood (Bacillus subtilis, Enterococcus faecalis, Staphylococcus aureus, Escherichia coli, MRSA, Actinetobacter baumannii, Pseudomonas aeruginosa, Stenotrophomonas maltophilia, and Mycobacterium smegmatis). Exponentially growing cells at 5×10^5 cells/ml were incubated with test compounds at various concentrations. After an 18 h to 24 h incubation at 37° C., MIC was determined as the minimal concentration of the compound that prevents bacterial growth.
In the case of `O=C(Nc1cc(Cl)c(Cl)c(Cl)c1)c1cc(Cl)cc(Cl)c1O` [Compound 142], the “MIC SA” value was found to be 0.5 µg/mL (≈ 1.3 µM).
Regarding `Cc1ccc(NC(=O)c2ccccc2)cc1Cl` [Compound A4N3], the “MIC SA” value was more than 32 µg/mL.
The same measure, in the same setting: the figure for `O=C(Nc1cc(Cl)ccc1Oc1ccccc1)c1ccc(O)c(O)c1O` [Compound A5N1] is 8 µg/mL (≈ 21.5 µM); for `O=C(Nc1ccccc1Oc1ccccc1)c1ccc(O)c(O)c1O` [Compound A5N2] it is 8 µg/mL (≈ 23.7 µM).
`O=C(Nc1cc(Cl)ccc1Oc1ccccc1)c1ccc(O)cc1` [Compound A6N1]: the “MIC SA” value stood at 16 µg/mL (≈ 47.1 µM).
On the same count and under the same terms, the figure for `O=C(Nc1ccccc1Oc1ccccc1)c1ccc(O)cc1` [Compound A6N2] is more than 32 µg/mL; for `Cc1ccc(NC(=O)c2ccc(O)cc2)cc1Cl` [Compound A6N3] it is 32 µg/mL (≈ 122 µM).

Staying with this assay, now noted: Staphylococcus aureus, ATCC29213, Staphylococcus aureus ATCC29213; read-out: MIC SA.
Turning to `O=C(Nc1cc(Cl)ccc1Cl)c1cc(Cl)cc(Cl)c1O` [Compound 141], the MIC worked out at 1 µg/mL (≈ 2.85 µM).
On the same count and under the same terms, to `O=C(Nc1cccc(Cl)c1)c1cc(Br)cc(Br)c1O` [Compound 203] belongs 2 µg/mL (≈ 4.93 µM).
Same read-out and setting: to `Cc1ccc(NC(=O)c2ccccc2O)cc1Cl` [Compound A3N3] belongs 4 µg/mL (≈ 15.3 µM); to `O=C(Nc1ccc(Cl)cc1)c1ccccc1O` [Compound A3N4], 8 µg/mL (≈ 32.3 µM).
Same read-out and setting: to `O=C(Nc1ccc([N+](=O)[O-])cc1)c1ccccc1O` [Compound A3N5] belongs 4 µg/mL (≈ 15.5 µM); to `COc1ccc(NC(=O)c2ccccc2O)cc1` [Compound A3N6], more than 32 µg/mL; to `Cc1ccc(NC(=O)c2ccc(O)c(O)c2O)cc1Cl` [Compound A5N3], 4 µg/mL (≈ 13.6 µM).

Another assay concerns methicillin-resistant Staphylococcus aureus (ATCC33592, MRSA). Kind of assay: Minimal inhibitory concentration (MIC), MRSA. The assay is classed as cell-based. As to conditions: Staphylococcus aureus, methicillin-resistant Staphylococcus aureus ATCC33592; read-out: MIC MRSA. The procedure: as §1
As to `O=C(Nc1cc(Cl)ccc1Cl)c1cc(Cl)cc(Cl)c1O` [Compound 141], the minimal inhibitory concentration (MIC) was 0.5 µg/mL (≈ 1.42 µM).
Take `O=C(Nc1cccc(Cl)c1)c1cc(Br)cc(Br)c1O` [Compound 203]: the minimal inhibitory concentration (MIC) came to 2 µg/mL (≈ 4.93 µM).

Staying with this assay, now noted: methicillin-resistant Staphylococcus aureus ATCC33592.
With `O=C(Nc1cc(Cl)c(Cl)c(Cl)c1)c1cc(Cl)cc(Cl)c1O` [Compound 142], the “MIC MRSA” value is 0.5 µg/mL (≈ 1.3 µM).

For a further assay, the system named is Mycobacterium smegmatis (ATCC11565, MS). Kind of assay: Minimal inhibitory concentration (MIC), MS. The format is cell-based. The following applies: Mycobacterium smegmatis ATCC11565. The procedure: as §1
Take `O=C(Nc1cc(Cl)c(Cl)c(Cl)c1)c1cc(Cl)cc(Cl)c1O` [Compound 142]: the “MIC MS” value came out at 0.125 µg/mL (≈ 0.324 µM).

The assay is the same for the next values; noted with them: Mycolicibacterium smegmatis, ATCC11565, Mycobacterium smegmatis ATCC11565; read-out: MIC MS.
Consider `O=C(Nc1cc(Cl)ccc1Cl)c1cc(Cl)cc(Cl)c1O` [Compound 141], for which the minimum inhibitory concentration (MIC) was determined as 2 µg/mL (≈ 5.7 µM).
The same measure, in the same setting: the figure for `O=C(Nc1cccc(Cl)c1)c1cc(Br)cc(Br)c1O` [Compound 203] is 4 µg/mL (≈ 9.87 µM).

In general, MIC refers to the lowest concentration that inhibits growth of the organism.

Values taken from patent publication US9890111B2, “Crystal structure of bifunctional transglycosylase PBP1b from E. coli and inhibitors thereof” (Academia Sinica, priority 2008, dated 2018).
